Data as given in patent US7951232B2, “Surface coating compositions and methods” (Elevance Renewable Sciences, Inc., priority 2006, dated 2011).

Tests used:
Assay type in all cases: cell-based
[1] = tested on: Pseudomonas aeruginosa ATCC 15442; assay: MIC and MBC determination in Mueller-Hinton Broth; details: no-growth tubes subcultured on TSA, 37±2° C., 20-24 hours
Method: Efficacy of 9-decenoic acid and the methyl ester of 9-decenoic acid against Pseudomonas aeruginosa ATCC 15442, Escherichia coli 0157:H7 ATCC 43895 and Candida albicans ATCC 10231 was measured through the determination of the minimum inhibitory concentration (MIC) and minimum bacteriocidal concentration (MBC) using the procedures in the Federal Register, June 1994 and the present NCCLS M11-A4 protocol.
Stock cultures of each organism were transferred onto Mueller-Hinton Agar (MHA) plates and incubated for 24±2 hours at 37±2° C. On the day of the test, the top of at least three to five well-isolated colonies were transferred via wire loop to a tube containing 4 to 5 ml of Trypticase Soy Broth (TSB). The TSB culture was incubated for 2 to 6 hours and turbidity was adjusted with sterile saline to achieve the turbidity of the 0.5 McFarland Standard.
The concentrated 9-decenoic acid was diluted 1:40 in Mueller-Hinton Broth (MHB) to yield a 2.5% stock solution. The test solution of the methyl ester of 9-decenoic acid was formulated in the same manner. For each organism, 12 dilutions of the 9-decenoic acid and the methyl ester of 9-decenoic acid in MHB were prepared ranging from 0.2500 to 0.0005%. A 2-ml aliquot of appropriately diluted 9-decenoic acid or the methyl ester of 9-decenoic acid solution was placed in each tube. Each tube was inoculated with 0.05 ml of a 1:10 dilution of one challenge organism. Tubes were incubated at 37±2° C. for 20-24 hours and observed for growth or no growth. […] Controls were run for sterility, viability and organism confirmation. It was determined that all cultures were viable and pure.
The MBC was defined as the concentration of 9-decenoic acid or the methyl ester of 9-decenoic acid that completely eradicated viable organisms from the test system.

[2] = tested on: Aureobasidium pullulans ATCC 12536; assay: Dry film preservative test, growth on PDA agar surface
Method: (§1) The efficacy of 9-decenoic acid and the methyl ester of 9-decenoic acid as a dry film preservative was determined through the incubation of Trichoderma virens ATCC 9645, Cladosporium cladosporiodes ATCC 16022 and Aureobasidium pullulans ATCC 12536 in the presence of varying concentrations of 9-decenoic acid or the methyl ester of 9-decenoic acid on an agar surface.
(§2) Fungal spores were hydrated overnight in 0.1% Tween 80 and then plated on Potato Dextrose Agar (PDA) and incubated at 25-30° C. for 6 days. The spores were washed from the surface with 5 mls of 0.1% Tween 80 and enumerated.
(§3) PDA plates with prepared according to the manufactures instructions through sterilization. The agar was tempered to approximately 50° C. and filter sterilized 9-decenoic acid was added to achieve concentrations of 0.1, 0.5 and 1.0% in the agar. Additionally, one concentration of the methyl ester of 9-decenoic acid (0.5%) was also prepared. The agar was thoroughly mixed and poured into sterile petri plates and allowed to solidify.
(§4) The agar plates were inoculated with the spore solution to achieve 10^2 spores/plate. The plates were incubated at 25-30° C. in Ziploc bags with a wet paper towel to keep the moisture level high. The plates were examined for growth after 4, 7, 16, 24 and 31 days. The percent coverage of growth on the agar surface was recorded at each sample point.

[3] = tested on: Cladosporium cladosporiodes ATCC 16022; assay: as above
Method: as §1, §2, §3, §4

[4] = tested on: Trichoderma virens ATCC 9645; assay: as above
Method: as §1, §2, §3, §4

[5] = tested on: Aureobasidium pullulans (ATCC 12536); assay: MIC on Potato Dextrose Agar surface; details: PDA agar, 25-30° C., least concentration that completely inhibited growth
Method: The efficacy of antimicrobial compositions in accordance with aspects of the invention against the following organisms was determined as follows. The following organisms were incubated in the presence of varying concentrations of 9-decenoic acid (9-DA) on an agar surface: Aspergillus parasiticus (ATCC 56857), Trichoderma virens (ATCC 9645), Aureobasidium pullulans (ATCC 12536), Aspergillus flavus (ATCC 96045), Cladosporium cladosporiodes (ATCC 16022), Aspergillus flavus (ATCC 5917), Aspergillus oryzae (ATCC 10124), Aspergillus parasiticus (ATCC 13539), Ulocladium atrum (ATCC 52426), Candida albicans (ATCC 11651), Alternaria alternata (ATCC 52170), Stachybotrys chartarum (ATCC 16026), Aspergillus niger (ATCC 11414).
Fungal spores were hydrated in 0.1% Tween 80 and then plated onto Potato Dextrose Agar (PDA) (Difco # 213400; Becton, Dickinson and Company, Sparks, Md.) and incubated at 25-30° C. for six (6) days. The spores were washed from the surface with 5 ml of 0.1% Tween 80 and enumerated.
PDA plates were prepared according to the manufacturer's instructions through sterilization. The agar was tempered to approximately 50° C. and was filter sterilized. […]
The agar plates were inoculated with the spore solution to achieve 10^2 spores/plate. […] The percent coverage of growth on the agar surface was recorded at each sample point.

C=CCCCCCCCC(=O)O [9-decenoic acid]
MBC [1]: 0.1250% | Percentage coverage of agar surface ([2]; 0.1% in PDA agar, 4 days): 0% | Percentage coverage of agar surface ([2]; 0.1% in PDA agar, 7 days): 0% | Percentage coverage of agar surface ([2]; 0.1% in PDA agar, 16 days): 0% | Percentage coverage of agar surface ([2]; 0.1% in PDA agar, 24 days): 0% | Percentage coverage of agar surface ([2]; 0.1% in PDA agar, 31 days): 0% | Percentage coverage of agar surface ([2]; 0.5% in PDA agar, 4 days): 0% | Percentage coverage of agar surface ([2]; 0.5% in PDA agar, 7 days): 0% | Percentage coverage of agar surface ([2]; 0.5% in PDA agar, 16 days): 0% | Percentage coverage of agar surface ([2]; 0.5% in PDA agar, 24 days): 0% | Percentage coverage of agar surface ([2]; 0.5% in PDA agar, 31 days): 0% | Percentage coverage of agar surface ([2]; 1.0% in PDA agar, 4 days): 0% | Percentage coverage of agar surface ([2]; 1.0% in PDA agar, 7 days): 0% | Percentage coverage of agar surface ([2]; 1.0% in PDA agar, 16 days): 0% | Percentage coverage of agar surface ([2]; 1.0% in PDA agar, 24 days): 0% | Percentage coverage of agar surface ([2]; 1.0% in PDA agar, 31 days): 0% | effectiveness as dry film preservative ([2]; at 0.1% for up to 31 days): effective | Percentage coverage of agar surface ([3]; 0.1% in PDA agar, 4 days): 0% | Percentage coverage of agar surface ([3]; 0.1% in PDA agar, 7 days): 0% | Percentage coverage of agar surface ([3]; 0.1% in PDA agar, 16 days): 0% | Percentage coverage of agar surface ([3]; 0.1% in PDA agar, 24 days): 0% | Percentage coverage of agar surface ([3]; 0.1% in PDA agar, 31 days): 0% | Percentage coverage of agar surface ([3]; 0.5% in PDA agar, 4 days): 0% | Percentage coverage of agar surface ([3]; 0.5% in PDA agar, 7 days): 0% | Percentage coverage of agar surface ([3]; 0.5% in PDA agar, 16 days): 0% | Percentage coverage of agar surface ([3]; 0.5% in PDA agar, 24 days): 0% | Percentage coverage of agar surface ([3]; 0.5% in PDA agar, 31 days): 0% | Percentage coverage of agar surface ([3]; 1.0% in PDA agar, 4 days): 0% | Percentage coverage of agar surface ([3]; 1.0% in PDA agar, 7 days): 0% | Percentage coverage of agar surface ([3]; 1.0% in PDA agar, 16 days): 0% | Percentage coverage of agar surface ([3]; 1.0% in PDA agar, 24 days): 0% | Percentage coverage of agar surface ([3]; 1.0% in PDA agar, 31 days): 0% | effectiveness as dry film preservative ([3]; at 0.1% for up to 31 days): effective | Percentage coverage of agar surface ([4]; 0.1% in PDA agar, 4 days): 0% | Percentage coverage of agar surface ([4]; 0.1% in PDA agar, 7 days): 0% | Percentage coverage of agar surface ([4]; 0.1% in PDA agar, 16 days): 0% | Percentage coverage of agar surface ([4]; 0.1% in PDA agar, 24 days): 0% | Percentage coverage of agar surface ([4]; 0.1% in PDA agar, 31 days): 0% | Percentage coverage of agar surface ([4]; 0.5% in PDA agar, 4 days): 0% | Percentage coverage of agar surface ([4]; 0.5% in PDA agar, 7 days): 0% | Percentage coverage of agar surface ([4]; 0.5% in PDA agar, 16 days): 0% | Percentage coverage of agar surface ([4]; 0.5% in PDA agar, 24 days): 0% | Percentage coverage of agar surface ([4]; 0.5% in PDA agar, 31 days): 0% | Percentage coverage of agar surface ([4]; 1.0% in PDA agar, 4 days): 0% | Percentage coverage of agar surface ([4]; 1.0% in PDA agar, 7 days): 0% | Percentage coverage of agar surface ([4]; 1.0% in PDA agar, 16 days): 0% | Percentage coverage of agar surface ([4]; 1.0% in PDA agar, 24 days): 0% | Percentage coverage of agar surface ([4]; 1.0% in PDA agar, 31 days): 0% | effectiveness as dry film preservative ([4]; at 0.1% for up to 31 days): effective | MIC [5]: 0.01%
